# Test results published in patent US6737383B1, “Herbicidal oxadiazolidines” (priority 1999, dated 2004).
# What was measured:
# duck salad = assay: Test B flood test duck salad; format: in vivo, Heteranthera limosa
# In short: (§1)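 Read-out is a visual response score from 0 (no effect) to 10 (complete control), assigned by comparison with untreated controls. Treatment was applied at the 2-leaf stage, and plants stayed in the greenhouse for twelve to sixteen days before scoring.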
# bedstraw = assay: Test B pre/postemergence bedstraw; format: in vivo, Galium aparine; details: Preemergence
# In short: (§2)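 Response is a visual 0-to-10 score relative to untreated plants, where 0 means no effect and 10 means complete control, taken twelve to sixteen days after application. Treatments went onto soil at planting and onto foliage of 1- to 4-leaf plants, using a surfactant-containing non-phytotoxic solvent.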
# rice = assay: Test B flood test rice; format: in vivo, Oryza sativa
# In short: as §1
# bamyardgrass = assay: Test B flood test barnyardgrass; format: in vivo, Echinochloa crus-galli
# In short: as §1
# giant foxtail = assay: Test B pre/postemergence giant foxtail; format: in vivo, Setaria faberii
# In short: as §2
# purple nutsedge = assay: Test B pre/postemergence purple nutsedge; format: in vivo, Cyperus rotundus
# In short: as §2
# pigweed = assay: Test B pre/postemergence pigweed; format: in vivo, Amaranthus retroflexus
# In short: as §2
# soybean = assay: Test B pre/postemergence soybean; format: in vivo, Glycine max
# In short: as §2
# corn = assay: Test B pre/postemergence corn; format: in vivo, Zea mays
# In short: as §2
# smallflower flatsedge = assay: Test B flood test smallflower flatsedge; format: in vivo, Cyperus difformis
# In short: as §1
# blackgrass = assay: Test B pre/postemergence blackgrass; format: in vivo, Alopecurus myosuroides
# In short: as §2
# surinam grass = assay: Test B pre/postemergence surinam grass; format: in vivo, Brachiaria decumbens
# In short: as §2
# sugar beet = assay: Test B pre/postemergence sugar beet; format: in vivo, Beta vulgaris
# In short: as §2
# wheat = assay: Test B pre/postemergence wheat; format: in vivo, Triticum aestivum
# In short: as §2
# rape = assay: Test B pre/postemergence rape; format: in vivo, Brassica napus
# In short: as §2
# velvetleaf = assay: Test B pre/postemergence velvetleaf; format: in vivo, Abutilon theophrasti
# In short: as §2
# morningglory = assay: Test B pre/postemergence morningglory; format: in vivo, Ipomoea hederacea
# In short: as §2
# cocklebur = assay: Test B pre/postemergence cocklebur; format: in vivo, Xanthium strumarium
# In short: as §2
# crabgrass = assay: Test B pre/postemergence crabgrass; format: in vivo, Digitaria sanguinalis
# In short: as §2
# wild oat = assay: Test B pre/postemergence wild oat; format: in vivo, Avena fatua
# In short: as §2
# [1] = Rate 62 g/ha, flood test species, Pre-emergence, visual evaluation after twelve to sixteen days
# [2] = Rate 125 g/ha, under heading Pre-emergence, flood test species, visual evaluation after twelve to sixteen days
# [3] = Rate 250 g/ha, Pre-emergence (flood test species), scale 0 to 10, 0 is no effect, 10 is complete control
# [4] = Rate 500 g/ha, Pre-emergence section of Table B, 0 to 10 scale (0 no effect, 10 complete control)
# [5] = Postemergence, Rate 62 g/ha, scale of 0 to 10, 0 is no effect, 10 is complete control
# [6] = Postemergence, Rate 125 g/ha, scale of 0 to 10 where 0 is no effect and 10 is complete control
# [7] = Postemergence, Rate 250 g/ha, scale of 0 to 10, 0 is no effect, 10 is complete control
# [8] = Postemergence, Rate 500 g/ha, scale of 0 to 10 where 0 is no effect and 10 is complete control
# [9] = Preemergence, Rate 62 g/ha, scale 0 to 10 (0 no effect, 10 complete control)
# [10] = Preemergence, Rate 125 g/ha, scale of 0 to 10 where 0 is no effect and 10 is complete control
# [11] = Preemergence, Rate 500 g/ha, scale of 0 to 10 where 0 is no effect and 10 is complete control
smiles,measurement,setting,value
CC(=O)OCC(CCl)n1c(=O)on(C(=O)N(c2ccc(F)cc2)C(C)C)c1=O (centres unmarked) [Compound 596],"Plant response rating, Ducksalad (0 to 10 scale, 0 is no effect, 10 is complete control)",duck salad; [1],0
same,"Ducksalad plant response rating (0 to 10 scale, 0 is no effect, 10 is complete control)",duck salad; [2],0
same,Ducksalad plant response rating,duck salad; [3],0
same,Ducksalad plant response rating,duck salad; [4],0
same,Bedstraw plant response rating,"bedstraw; Rate 62 g/ha, scale 0 to 10 (0 no effect, 10 complete control)",0
same,Bedstraw plant response rating,"bedstraw; Rate 125 g/ha, scale of 0 to 10 where 0 is no effect and 10 is complete control",0
same,Bedstraw plant response rating (0 to 10 scale),bedstraw; Rate 250 g/ha,0
same,Bedstraw plant response rating,"bedstraw; Rate 500 g/ha, scale of 0 to 10 where 0 is no effect and 10 is complete control",0
same,"Plant response rating, Rice (0 to 10 scale, 0 is no effect, 10 is complete control)",rice; [1],0
same,"Rice plant response rating (0 to 10 scale, 0 is no effect, 10 is complete control)",rice; [2],0
same,Rice plant response rating,rice; [3],0
same,Rice plant response rating,rice; [4],0
same,"Plant response rating, Barnyardgrass (0 to 10 scale, 0 is no effect, 10 is complete control)",bamyardgrass; [1],0
same,"Barnyardgrass plant response rating (0 to 10 scale, 0 is no effect, 10 is complete control)",bamyardgrass; [2],0
same,Barnyardgrass plant response rating,bamyardgrass; [3],0
same,Barnyardgrass plant response rating,bamyardgrass; [4],0
same,Giant foxtail plant response rating,giant foxtail; [5],0
same,"Plant response rating, Giant foxtail",giant foxtail; [6],0
same,Giant foxtail plant response rating,giant foxtail; [7],0
same,"Plant response rating, Giant foxtail",giant foxtail; [8],3
same,Giant foxtail plant response rating,giant foxtail; [9],0
same,Giant foxtail plant response rating,giant foxtail; [10],0
same,"Plant response rating, Giant foxtail",giant foxtail; [11],4
same,Nutsedge plant response rating,purple nutsedge; [5],0
same,"Plant response rating, Nutsedge",purple nutsedge; [6],0
same,"Plant response rating, Nutsedge",purple nutsedge; [8],0
same,Nutsedge plant response rating,purple nutsedge; [9],0
same,Nutsedge plant response rating,purple nutsedge; [10],0
same,"Plant response rating, Nutsedge",purple nutsedge; [11],0
same,"Plant response rating, Redroot pigweed",pigweed; [6],0
same,Redroot pigweed plant response rating,pigweed; [7],0
same,"Plant response rating, Redroot pigweed",pigweed; [8],0
same,Redroot pigweed plant response rating,pigweed; [9],0
same,Redroot pigweed plant response rating,pigweed; [10],0
same,"Plant response rating, Redroot pigweed",pigweed; [11],0
same,"Plant response rating, Soybean",soybean; [6],2
same,Soybean plant response rating,soybean; [7],2
same,"Plant response rating, Soybean",soybean; [8],3
same,Soybean plant response rating,soybean; [9],0
same,Soybean plant response rating,soybean; [10],0
same,"Plant response rating, Soybean",soybean; [11],0
same,Corn plant response rating,corn; [5],0
same,"Plant response rating, Corn",corn; [6],0
same,Corn plant response rating,corn; [7],0
same,"Plant response rating, Corn",corn; [8],0
same,Corn plant response rating,corn; [9],0
same,Corn plant response rating,corn; [10],0
same,Corn plant response rating (0 to 10 scale),"corn; Preemergence, Rate 250 g/ha",0
same,"Plant response rating, Corn",corn; [11],0
same,"Plant response rating, S. Flatsedge (0 to 10 scale, 0 is no effect, 10 is complete control)",smallflower flatsedge; [1],0
same,"S. Flatsedge plant response rating (0 to 10 scale, 0 is no effect, 10 is complete control)",smallflower flatsedge; [2],0
same,S. Flatsedge plant response rating,smallflower flatsedge; [3],0
same,S. Flatsedge plant response rating,smallflower flatsedge; [4],0
same,Blackgrass plant response rating,blackgrass; [5],0
same,"Plant response rating, Blackgrass",blackgrass; [6],0
same,Blackgrass plant response rating,blackgrass; [7],0
same,"Plant response rating, Blackgrass",blackgrass; [8],0
same,Blackgrass plant response rating,blackgrass; [9],0
same,Blackgrass plant response rating,blackgrass; [10],0
same,Blackgrass plant response rating (0 to 10 scale),"blackgrass; Preemergence, Rate 250 g/ha",0
same,Blackgrass plant response rating,blackgrass; [11],0
same,B. signalgrass plant response rating,surinam grass; [5],0
same,"Plant response rating, B. signalgrass",surinam grass; [6],0
same,B. signalgrass plant response rating,surinam grass; [7],0
same,"Plant response rating, B. signalgrass",surinam grass; [8],0
same,B. signalgrass plant response rating,surinam grass; [9],0
same,B. signalgrass plant response rating,surinam grass; [10],0
same,"B. signalgrass plant response rating (0 to 10 scale, 0 is no effect, 10 is complete control)","surinam grass; Preemergence, Rate 250 g/ha",0
same,B. signalgrass plant response rating,surinam grass; [11],0
same,"Plant response rating, Sugarbeets",sugar beet; [6],0
same,Sugarbeets plant response rating,sugar beet; [7],0
same,"Plant response rating, Sugarbeets",sugar beet; [8],0
same,Sugarbeets plant response rating,sugar beet; [9],0
same,Sugarbeets plant response rating,sugar beet; [10],0
same,"Plant response rating, Sugarbeets",sugar beet; [11],0
same,"Plant response rating, Wheat",wheat; [6],0
same,Wheat plant response rating,wheat; [7],0
same,"Plant response rating, Wheat",wheat; [8],0
same,Wheat plant response rating,wheat; [9],0
same,Wheat plant response rating,wheat; [10],0
same,"Plant response rating, Wheat",wheat; [11],0
same,Rape plant response rating,rape; [5],0
same,"Plant response rating, Rape",rape; [6],0
same,Rape plant response rating,rape; [7],0
same,"Plant response rating, Rape",rape; [8],0
same,Rape plant response rating,rape; [9],0
same,Rape plant response rating,rape; [10],0
same,"Plant response rating, Rape",rape; [11],0
same,"Plant response rating, Velvetleaf",velvetleaf; [6],0
same,Velvetleaf plant response rating,velvetleaf; [7],0
same,"Plant response rating, Velvetleaf",velvetleaf; [8],0
same,Velvetleaf plant response rating,velvetleaf; [9],0
same,Velvetleaf plant response rating,velvetleaf; [10],0
same,"Plant response rating, Velvetleaf",velvetleaf; [11],0
same,Morningglory plant response rating,morningglory; [5],0
same,"Plant response rating, Morningglory",morningglory; [6],0
same,Morningglory plant response rating,morningglory; [7],0
same,"Plant response rating, Morningglory",morningglory; [8],2
same,Morningglory plant response rating,morningglory; [9],0
same,Morningglory plant response rating,morningglory; [10],0
same,"Plant response rating, Morningglory",morningglory; [11],0
same,Cocklebur plant response rating,cocklebur; [5],0
same,"Plant response rating, Cocklebur",cocklebur; [6],0
same,Cocklebur plant response rating,cocklebur; [7],0
same,"Plant response rating, Cocklebur",cocklebur; [8],0
same,Cocklebur plant response rating,cocklebur; [9],0
same,Cocklebur plant response rating,cocklebur; [10],0
same,Cocklebur plant response rating (0 to 10 scale),"cocklebur; Preemergence, Rate 250 g/ha",0
same,"Plant response rating, Cocklebur",cocklebur; [11],0
same,Crabgrass plant response rating,crabgrass; [5],0
same,"Plant response rating, Crabgrass",crabgrass; [6],0
same,Crabgrass plant response rating,crabgrass; [7],0
same,"Plant response rating, Crabgrass",crabgrass; [8],2
same,Crabgrass plant response rating,crabgrass; [9],0
same,Crabgrass plant response rating,crabgrass; [10],0
same,"Plant response rating, Crabgrass",crabgrass; [11],6
same,"Plant response rating, Wild oats",wild oat; [6],0
same,Wild oats plant response rating,wild oat; [7],0
same,"Plant response rating, Wild oats",wild oat; [8],0
same,Wild oats plant response rating,wild oat; [9],0
same,Wild oats plant response rating,wild oat; [10],0
same,"Plant response rating, Wild oats",wild oat; [11],0
